Experimental data published in article doi:10.1101/2025.01.14.632949v1 (biorxiv, 2025).

Target: Gal-3 (Homo sapiens, UniProt P17931)
Assay: biolayer interferometry, steady-state analysis
Assay type: binding

Gal-3, sequence (P17931 2-250): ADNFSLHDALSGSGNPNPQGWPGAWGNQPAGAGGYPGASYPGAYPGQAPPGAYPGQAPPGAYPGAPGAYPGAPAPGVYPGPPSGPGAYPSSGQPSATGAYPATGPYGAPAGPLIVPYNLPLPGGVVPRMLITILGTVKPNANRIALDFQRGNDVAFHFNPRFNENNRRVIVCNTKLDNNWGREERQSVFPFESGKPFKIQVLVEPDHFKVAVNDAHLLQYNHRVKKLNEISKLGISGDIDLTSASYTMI

| Kd [µM] | Compound |
| --- | --- |
| 3.31 | OC[C@H]1O[C@H](Oc2ccc(N=Nc3c(O)c(N=Nc4ccc(O[C@H]5O[C@H](CO)[C@H](O)[C@H](O)[C@H]5O)cc4)c(O)c(N=Nc4ccc(O[C@H]5O[C@H](CO)[C@H](O)[C@H](O)[C@H]5O)cc4)c3O)cc2)[C@H](O)[C@@H](O)[C@H]1O [αGalY] |
| 9.14 ± 3.42 | OC[C@H]1O[C@@H](Oc2ccc(N=Nc3c(O)c(N=Nc4ccc(O[C@@H]5O[C@H](CO)[C@H](O)[C@H](O)[C@H]5O)cc4)c(O)c(N=Nc4ccc(O[C@@H]5O[C@H](CO)[C@H](O)[C@H](O)[C@H]5O)cc4)c3O)cc2)[C@H](O)[C@@H](O)[C@H]1O [βGalY] |
| 3.46 ± 1.75 | OC[C@H]1O[C@@H](O[C@H]2[C@H](O)[C@@H](O)[C@H](Oc3ccc(N=Nc4c(O)c(N=Nc5ccc(O[C@@H]6O[C@H](CO)[C@@H](O[C@@H]7O[C@H](CO)[C@H](O)[C@H](O)[C@H]7O)[C@H](O)[C@H]6O)cc5)c(O)c(N=Nc5ccc(O[C@@H]6O[C@H](CO)[C@@H](O[C@@H]7O[C@H](CO)[C@H](O)[C@H](O)[C@H]7O)[C@H](O)[C@H]6O)cc5)c4O)cc3)O[C@@H]2CO)[C@H](O)[C@@H](O)[C@H]1O [βLacY] |
